Source: patent publication US9598441B2, “Therapeutic compounds and methods” (Wayne State University, priority 2011, dated 2017)

Molecular target: T1, endogenous interaction between CARP-1 and APC-2 in MDA-MB-468 HBC cells (Homo sapiens, UniProt Q8IX12)
T1 construct: endogenous in cells; host or cells: MDA-MB-468 human breast cancer cells
T1 sequence (Q8IX12 1-1150): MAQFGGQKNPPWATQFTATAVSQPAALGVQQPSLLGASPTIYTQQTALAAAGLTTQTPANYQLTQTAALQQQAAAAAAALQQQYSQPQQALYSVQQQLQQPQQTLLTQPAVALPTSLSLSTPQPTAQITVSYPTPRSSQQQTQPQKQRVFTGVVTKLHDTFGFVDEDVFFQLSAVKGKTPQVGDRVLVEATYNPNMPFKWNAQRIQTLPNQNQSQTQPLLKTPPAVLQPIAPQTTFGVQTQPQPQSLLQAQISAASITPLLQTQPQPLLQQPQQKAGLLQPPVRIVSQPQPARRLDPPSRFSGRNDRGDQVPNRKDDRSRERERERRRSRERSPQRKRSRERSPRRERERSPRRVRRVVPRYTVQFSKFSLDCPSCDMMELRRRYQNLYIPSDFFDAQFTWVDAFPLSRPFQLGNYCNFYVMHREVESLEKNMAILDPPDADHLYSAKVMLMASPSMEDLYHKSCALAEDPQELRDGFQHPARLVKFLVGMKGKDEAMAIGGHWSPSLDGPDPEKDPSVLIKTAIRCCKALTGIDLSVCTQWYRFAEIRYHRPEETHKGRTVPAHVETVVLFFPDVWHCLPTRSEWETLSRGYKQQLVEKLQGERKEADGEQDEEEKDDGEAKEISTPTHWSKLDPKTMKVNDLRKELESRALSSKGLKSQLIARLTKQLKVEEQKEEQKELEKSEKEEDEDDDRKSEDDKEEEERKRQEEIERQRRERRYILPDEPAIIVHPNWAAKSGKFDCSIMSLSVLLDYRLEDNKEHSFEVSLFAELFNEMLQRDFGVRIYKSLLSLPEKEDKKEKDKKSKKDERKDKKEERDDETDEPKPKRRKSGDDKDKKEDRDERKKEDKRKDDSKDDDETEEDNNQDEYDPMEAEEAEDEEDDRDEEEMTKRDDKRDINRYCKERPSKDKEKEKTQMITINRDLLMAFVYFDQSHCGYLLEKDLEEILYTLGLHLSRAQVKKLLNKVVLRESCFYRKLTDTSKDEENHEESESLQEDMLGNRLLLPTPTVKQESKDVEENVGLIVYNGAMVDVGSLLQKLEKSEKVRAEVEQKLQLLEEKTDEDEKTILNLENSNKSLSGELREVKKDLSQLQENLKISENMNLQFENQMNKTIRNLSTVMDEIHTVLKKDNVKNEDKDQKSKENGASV
Test: IP-WB of endogenous CARP-1/APC-2 interaction in treated cells
Type: cell-based
Conditions: escalating doses, 12 h
Description: FIGS. 2A-2D: Identification of small molecular antagonists of CARP-1 binding with APC-2. 2A, FP assay for CARP-1-APC-2 binding. Increasing concentrations of fluorescein-tagged A-epitope peptide [CARP-1 (951-980)] were incubated with the indicated quantities of the Gst-APC-2(685-754) proteins in assay buffer containing 0.01% triton-X100. Gst-NEMO (221-317) was included as a negative control. mP, millipolarization units. 2B, chemical structures of inhibitors of CARP-1 binding with APC-2 identified from HTS. CFM, CARP-1 Functional Mimetic; CFM-1, (Z)-5-(5-bromo-7-methyl-2-oxoindolin-3-ylidene)-2-thioxothiazolidin-4-one; CFM-4,1-(2-chlorobenzyl)-5′-phenyl-3′H-spiro[indoline-3,2′-[1,3,4]thiadiazol]-2-one; CFM-5,5-bromo-1-phenethyl-5′-phenyl-3′H-spiro[indoline-3,2′-[1,3,4]thiadiazol]-2-one. 2C, CFM-4 and CFM-5 bind CARP-1. […] The complexes were analyzed by SDS-PAGE followed by WB with the noted antibodies. […] Immunoprecipitates or the respective cell lysates were analyzed by WB with noted antibodies as in FIG. 1A. […]
Logarithmically growing cells were either untreated or treated with different agents for various time periods. […] The cell growth inhibition was assessed by using MTT assay. […] The assessment of the live cells was derived by measuring the absorbance of the converted dye at wavelength of 570 nm. […]

O=C1N(Cc2ccccc2Cl)c2ccccc2C12NN=C(c1ccccc1)S2 (stereo not shown) [CFM-4, 1-(2-chlorobenzyl)-5′-phenyl-3′H-spiro[indoline-3,2′-[1,3,4]thiadiazol]-2-one]
Binding of CARP-1 with APC-2 in cells (IP-WB): declined in the presence of CFM-4 in a dose-dependent manner
